The values that follow come from patent US10933053B2, “Treating infections with ceftolozane/tazobactam in subjects having impaired renal function” (MERCK SHARP & DOHME CORP., priority 2013, dated 2021).

The subject of one data set is P. aeruginosa. The conditions noted are these: neutropenic murine-thigh infection model; cited from earlier work.
Data set [1] is described as follows: clinical. The conditions noted are these: human, in vivo. From the text:
The most common adverse reactions (≥5% in either indication) occurring in patients receiving CXA-201 were nausea, headache and diarrhea. Table 3 lists adverse reactions occurring in ≥1.0% of patients receiving CXA-201 in Phase 3 clinical trials.
The majority of adverse events were mild to moderate in severity, and the incidence of treatment-limiting adverse events was <2% in both treatment groups. Epidemiology and susceptibility of organisms isolated from patients with cUTI.

Data set [2] in a line: clinical. The conditions noted are these: human, in vivo; for Tmax / clearance / Vd / half-life: both sexes; for clearance: CL; for clearance / Vd: mean (CV %); for Vd: Vss; for half-life: t1/2, mean (CV %); for AUC higher in females compared to males / CL, mean (CV %) / Vss, mean (CV %) / t1/2, mean (CV %) / tmax, median (minimum, maximum): both. How it is done: This TQT study was a single-center, prospective, randomized, double-blind, double-dummy, placebo and active controlled, 4-way crossover study that evaluated a single therapeutic 1.5 g and a single supratherapeutic 4.5 g dose of ceftolozane/tazobactam compared with placebo. Moxifloxacin 400 mg, given orally, was used as a positive control. All subjects received study drug on 4 dosing days (Day 1, Day 5, Day 9, and Day 13) in a crossover fashion with a 3-day wash-out period between doses. Healthy men and women were randomized on a 1:1:1:1 basis to 1 of 4 dosing sequences.
Electrocardiograms were recorded (triplicate measurements) over 24 hours on Day 1, Day 5, Day 9, and Day 13 using a 12-lead Holter monitor. Blood samples for determination of ceftolozane, tazobactam, and the M1 metabolite of tazobactam levels were obtained at prespecified time intervals prior to and following each electrocardiogram (ECG) reading on dosing days. Plasma levels of ceftolozane, tazobactam, and its metabolite M1 were determined by LC/MS/MS assay.

Data set [3] can be described thus: clinical. The conditions noted are these: both, human, in vivo, 750 mg. How it is done: This was a Phase 1, multicenter, prospective, open-label study of 750 mg ceftolozane/tazobactam (as CXA-201) administered IV in male and female adult subjects with severe renal impairment (estimated CLCR<30 mL/min) and subjects with end-stage renal disease (ESRD) on hemodialysis (HD). The primary objective of the study was to determine the PK profile of ceftolozane/tazobactam in subjects with severe renal impairment and subjects with ESRD on HD and to determine the effect of HD on the clearance of ceftolozane/tazobactam.
Subjects with severe renal impairment received a single IV 1-hour infusion of 750 mg ceftolozane/tazobactam on Day 1. […] Subjects in this cohort received an IV dose of 750 mg ceftolozane/tazobactam as a 1 hour infusion immediately after their first HD session on Day 1 (post dialysis, approximately 72 hours prior to the next HD session) and a second dose of ceftolozane/tazobactam approximately 2 hours before their second HD session on Day 4 of the study. Infusion of ceftolozane/tazobactam was completed approximately 1 hour before the start of HD.
Subjects in both cohorts had urine (if not anuric) and plasma samples collected for determination of levels of ceftolozane, tazobactam and the M1 metabolite of tazobactam; subjects in the ESRD on HD cohort also had dialysate fluid samples collected for PK assessment. Plasma, urine, and dialysate levels of ceftolozane, tazobactam, and its metabolite M1 collected over a prespecified interval were determined by LC/MS/MS assay.

The conditions of data set [4]: subjects with normal renal function; cited from earlier work.
The conditions of data set [5]: threshold = 1/2 of the TOL/TAZ MIC; cited from earlier work.
Another data set deals with human plasma proteins. The data set can be described thus: Binding to human plasma proteins. The class given is in vitro ADME.

The term AUC denotes concentration integrated over time. What is called Tmax is the time at which the peak concentration occurs. As a reminder, the clearance is a measure of how efficiently the substance is removed, as volume per time. Lower therefore signals inefficient removal. The Vd is a proportionality between amount in the body and measured concentration, not a real space. Low readings indicate confinement near the circulation, high ones extensive tissue distribution. For orientation: half-life means how long it takes for the measured level to halve. Usually AUC(0-inf) stands for the area under the concentration-time curve extrapolated to infinity. One may read the AUC(0-t) as the area under the concentration-time curve up to a stated or last time point. As to `Cn1c(N)c(NC(=O)NCCN)c[n+]1CC1=C(C(=O)O)N2C(=O)[C@@H](NC(=O)/C(=N\OC(C)(C)C(=O)O)c3nsc(N)n3)[C@H]2SC1` [Ceftolozane, (6R,7R)-3-[(5-amino-4-{[(2-aminoethyl)carbamoyl]amino}-1-methyl-1H-pyrazol-2-ium-2-yl)methyl]-7-({(2Z)-2-(5-amino-1,2,4-thiadiazol-3-yl)-2-[(1-carboxy-1-methylethoxy)imino]acetyl}amino)-8-oxo-5-thia-1-azabicyclo[4.2.0]oct-2-ene-2-carboxylate], in the data set on P. aeruginosa, the “free-drug % T>MIC target associated with 1-log10 CFU reduction from baseline (bactericidal, 1-log kill)” value is reported as 32.2% and the “free-drug % T>MIC target associated with net bacterial stasis” value is given as 24.8%. In addition, in “clinical [1]”, the AUC was found to be 1100 µg·h/mL; the “daily AUC previously shown to be safe and tolerable in humans” value is 1100 µg·h/mL. In addition, in the data set “clinical [2]”, the time of peak concentration (Tmax) stood at 40 min, the clearance was 92.8 mL/min, the Vd was determined as 13.5 L and the half-life was 137 min. Also, in the data set “clinical [2]”, the “AUC higher in females compared to males” value was 22%; the “CL, mean (CV %)” value is 5.50 (17) L/h; the “Vss, mean (CV %)” value was 13.7 (20) L; the “t1/2, mean (CV %)” value is 2.72 (21) h. In addition, in the data set “clinical [2]”, the “tmax, median (minimum, maximum)” value was 0.667 (0.667, 1.18) h. Moreover, in the data set “clinical [3]”, the AUC(0-inf) came to 537 µg·h/mL, the AUC(0-t) is 511 µg·h/mL, the Vd was 13.8 L and the clearance is 16.7 mL/min. In addition, the half-life in “clinical [3]” is 666 min. For the same molecule, the “median daily steady-state AUC” value in data set [4] is recorded as 690 mg·h/L.
As for `C[C@]1(Cn2ccnn2)[C@H](C(=O)O)N2C(=O)C[C@H]2S1(=O)=O` [Tazobactam, tazobactam], in data set [5], the “free-drug % T>threshold target” value was 65.9. Further, the “binding to human plasma proteins” value in the data set on human plasma proteins is approximately 30%. For the same molecule, in the data set “clinical [2]”, the time to peak (Tmax) came to 40 min, the clearance was 368 mL/min, the distribution volume (Vd) stood at 18.2 L and the half-life is 52.2 min. Further, in “clinical [2]”, the “AUC higher in females compared to males” value worked out at 19%; the “CL, mean (CV %)” value is 21.2 (19) L/h; the “Vss, mean (CV %)” value is reported as 19.3 (22) L; the “t1/2, mean (CV %)” value is listed as 1.05 (17) h. In addition, the “tmax, median (minimum, maximum)” value in the data set “clinical [2]” is given as 0.667 (0.667, 1.17) h. Also, in data set [4], the “median daily steady-state AUC” value is on record as 89.4 mg·h/L.
